Results reported in US11958815B1, “N′-(2-(5-phenyl-1,3,4-oxadiazol-2-ylthio)acetoxy)-2-naphthimidamide as antimicrobial compound” (KING FAISAL UNIVERSITY, priority 2023, dated 2024).

How the values were obtained:
[1] = test system: Aspergillus flavus; assay: Agar plate disc-diffusion, antifungal activity by inhibition zone; details: Sabouraud's dextrose agar, 37° C., 72 hours, DMSO zone subtracted
[2] = test system: Escherichia coli; assay: Agar plate disc-diffusion, antibacterial activity by inhibition zone; details: nutrient agar, 37° C., 48 hours, DMSO zone subtracted
[3] = test system: Pseudomonas aeruginosa; assay: as above; details: nutrient agar, 37° C., 48 hours, DMSO zone subtracted
[4] = test system: Bacillus cereus; assay: as above; details: nutrient agar, 37° C., 48 hours, DMSO zone subtracted
[5] = test system: Staphylococcus aureus; assay: as above; details: nutrient agar, 37° C., 48 hours, DMSO zone subtracted
[6] = test system: Chrysosporium keratinophilum; assay: Agar plate disc-diffusion, antifungal activity by inhibition zone; details: Sabouraud's dextrose agar, 37° C., 72 hours, DMSO zone subtracted
[7] = A = concentration of comp. = 10,000 μL
[8] = B = concentration of comp. = 30.000 μL
[9] = C = concentration of comp. = 50,000 μL

For `N/C(=N\OC(=O)CSc1nnc(-c2ccccc2)o1)c1ccc2ccccc2c1` [Comp 3, N′-(2-(5-phenyl-1,3,4-oxadiazol-2-ylthio)acetoxy)-2-naphthimidamide], the “inhibition zone, Aspergillus flavus” value [1, 7] was 26 mm, the “inhibition zone, Aspergillus flavus” value [1, 8] was 29 mm and the “inhibition zone, Aspergillus flavus” value [1, 9] was 39 mm. The “inhibition zone, Escherichia coli” value [2, 7] was 31 mm, the “inhibition zone, Escherichia coli” value [2, 8] was 39 mm and the “inhibition zone, Escherichia coli” value [2, 9] was 48 mm. The “inhibition zone, Pseudomonas aeruginosa” value [3, 7] was 27 mm, the “inhibition zone, Pseudomonas aeruginosa” value [3, 8] was 34 mm and the “inhibition zone, Pseudomonas aeruginosa” value [3, 9] was 40 mm. The “inhibition zone, Bacillus Cereus” value [4, 7] was 28 mm, the “inhibition zone, Bacillus Cereus” value [4, 8] was 32 mm and the “inhibition zone, Bacillus Cereus” value [4, 9] was 40 mm. The “inhibition zone, Staphylococcus aureus” value [5, 7] was 25 mm, the “inhibition zone, Staphylococcus aureus” value [5, 8] was 31 mm and the “inhibition zone, Staphylococcus aureus” value [5, 9] was 40 mm. The “inhibition zone, Chrysosporium keratinophilum” value [6, 7] was 31 mm, the “inhibition zone, Chrysosporium keratinophilum” value [6, 8] was 39 mm and the “inhibition zone, Chrysosporium keratinophilum” value [6, 9] was 45 mm.
